This assay has as its system female NMRI mice. Briefly: Anorectic effect: reduction in cumulative milk consumption of treated compared with control animals. It is filed as in vivo. The note with it: oral dose 30 mg/kg by gavage; female NMRI mice after withdrawal of feed for 17 hours; condensed milk consumption determined every half hour for 7 hours. How it is done: The anorectic effect was tested on female NMRI mice. After withdrawal of feed for 17 hours, the test product was administered by gavage. The animals were housed singly with free access to drinking water and were offered condensed milk 30 minutes after administration of the product. The condensed milk consumption was determined every half hour for 7 hours, and the general wellbeing of the animals was observed. The measured milk consumption was compared with the vehicle-treated control animals.

Regarding `CN1C[C@H]2CCN(c3ccc(NC(=O)N4CCC(c5ccc(Cl)cc5)CC4)cc3)[C@H]2C1` (stereo in doubt) [Example 9, 4-(4-Chlorophenyl)piperidine-1-carboxylic acid [4-(5-methylhexahydropyrrolo[3,4-b]pyrrol-1-yl)phenyl]amide], the “Reduction in cumulative milk consumption as % of the control” value is 82 % of the control.

Source of the values: patent US8586609B2, “Aryl-substituted polycyclic amines, method for the production thereof, and use thereof as a medicament” (Sanofi-Aventis Deutschland GmbH, priority 2004, dated 2013).
